The target of assay [1] is T1, PglB (Campylobacter jejuni subsp. jejuni serotype O:2, UniProt Q0P9C8). The following applies: glycolipid 1-200 μM, peptide 20 μM, PglB 0.44 μM, reaction time <2 h, duplicate.
Protocol: Reaction mixtures were prepared as described above in Example 6 and incubated in a thermo cycler for 2 h at 30° C. Glycosylation was terminated by flash increasing of temperature to 95° C. for 2 minutes. Peptide mixtures were cleaned up and subjected to UPLC. The separation of the glycosylated peptide from unglycosylated was achieved by normal phase using Waters Acquity UPLC column (BEH glycan, 2.1×150 mm, 1.7-μm particles). Concentration of un- and glycosylated peptides was measured by calculating the area of corresponding peaks (FIG. 3.)
Assay [2] deals with T1, PglB. Briefly: Synthetic optimization of peptide glycosylation by PglB, HPLC/LC-MS conversion. The assay is classed as biochemical. On the set-up: 10His (C); made in house; host or cells: E. coli Rosetta. The following applies: peptide:glycolipid 1:5, RT overnight, HPLC peak areas, FIG. 2a. As for the experimental part:
To a 10 μL of purified PglB (40 μM) in 1.5 mL eppendorf tube was added 34 μL of buffer (HEPES 10 mM, pH 7.5 containing 1 mM MnCl2 and 1% Triton-X 100). […] For the gel analysis, 8 μL of reaction mixture was treated with 2 μL of 4X SDS sample buffer and heated to 90° C. for 5 minutes. Analytical HPLC was carried out on a Waters 2795 separation module HPLC instrument equipped with a Jasco FP-920 Intelligent Fluorescent Detector (Excitation at 542 nm, Emission at 572 nm). Phenomenex Jupiter 4μ proteo 90A (250×4.6 mm) column was used with a gradient of 0-20%, 20-45%, 45-95% Acetonitrile with 0.1% formic acid at a flow rate of 1 ml/min. Product eluted with a retention time of 6.6 min and identification was performed using the Micromass LCT (TOF ESI). Conversion of the reaction was quantified by integration of the respective peak areas of product and remaining starting peptide.

Assay [3] deals with T1, PglB. Briefly: In vitro glycosylation of AcrA protein by PglB, ES-MS analysis. The assay is classed as biochemical. On the set-up: 10His (C); made in house; host or cells: E. coli Rosetta. The following applies: AcrA-His6 129 pmol, glycolipid 25.6 nmol, 25° C., 36 hours. An excerpt:
Using the process described in Example 6a the two consensus Asn sites in the C. jejuni AcrA protein (overexpressed and purified from E. coli using pET24 (AcrA-Cys) according to the literature protocol [Kowarik, M. et. al., Science, 2006, 314, 1148-1150; Lazar, M. N. et. al., Glycobiology, 2005, 15 (4), 361-367]) were glycosylated using glycolipid substrates (Examples 2 and 4).

T1 sequence (Q0P9C8 whole entry): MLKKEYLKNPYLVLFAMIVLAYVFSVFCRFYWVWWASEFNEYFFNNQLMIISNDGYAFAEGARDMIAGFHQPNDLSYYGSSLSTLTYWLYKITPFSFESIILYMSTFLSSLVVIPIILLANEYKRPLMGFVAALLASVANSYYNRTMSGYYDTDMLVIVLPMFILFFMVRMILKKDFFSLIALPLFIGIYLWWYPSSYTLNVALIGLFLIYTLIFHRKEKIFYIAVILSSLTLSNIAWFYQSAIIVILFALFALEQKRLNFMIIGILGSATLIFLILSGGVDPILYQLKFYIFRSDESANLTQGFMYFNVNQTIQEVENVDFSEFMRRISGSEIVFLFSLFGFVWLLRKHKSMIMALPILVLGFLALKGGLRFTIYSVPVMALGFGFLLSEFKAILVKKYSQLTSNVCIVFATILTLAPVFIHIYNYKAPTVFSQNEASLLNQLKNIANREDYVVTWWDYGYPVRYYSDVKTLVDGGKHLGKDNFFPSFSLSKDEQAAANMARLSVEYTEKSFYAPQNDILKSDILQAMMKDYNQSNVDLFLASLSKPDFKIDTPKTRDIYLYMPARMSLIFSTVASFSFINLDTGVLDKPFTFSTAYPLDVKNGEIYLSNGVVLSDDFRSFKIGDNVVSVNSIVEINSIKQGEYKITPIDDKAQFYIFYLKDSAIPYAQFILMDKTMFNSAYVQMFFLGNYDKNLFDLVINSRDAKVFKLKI

On to `CC(=O)NC1C(O)[C@H](O)C(CO)O[C@@H]1OP(=O)(O)OP(=O)(O)OC/C=C(/C)CC/C=C(/C)CC/C=C(/C)CC/C=C(/C)CC/C=C(/C)CC/C=C(\C)CC/C=C(\C)CCC=C(C)C` (stereo partly drawn) [Comparative Example 5, P^1-2-Acetamido-2-deoxy-α-D-glucopyranosyl P^2-(2Z,6Z,10Z,14Z,18Z,22E,26E)-3,7,11,15,19,23,27,31-octamethyldotriaconta-2,6,10,14,18,22,26,30-octaen-1-yl diphosphate, reference compound], for which, in assay [1], the Km stood at 34 ± 10 µM and the catalytic constant (kcat) amounted to 0.000375 ± 3.5e-05 s⁻¹.
Take `CC(=O)NC1[C@@H](OP(=O)(O)OP(=O)(O)OC/C=C(/C)CC/C=C(/C)CC/C=C(/C)CCC=C(C)C)OC(CO)[C@@H](O)[C@@H]1O` (stereo partly drawn) [Example 1, P^1-2-Acetamido-2-deoxy-α-D-glucopyranosyl P^2-(2Z,6Z,10Z)-3,7,11,15-tetramethyl hexadeca-2,6,10,14-tetraen-1-yl diphosphate]: in assay [1], the Km stood at 77 ± 16 µM and the kcat was found to be 0.00039 ± 3.5e-05 s⁻¹.
On to `CC(=O)NC1[C@@H](OP(=O)([O-])OP(=O)([O-])OC/C=C(/C)CC/C=C(/C)CC/C=C(/C)CC/C=C(/C)CC/C=C(\C)CCC=C(C)C)OC(CO)[C@@H](O)[C@@H]1O.[Na+].[Na+]` (stereo partly drawn) [Example 4, P^1-2-Acetamido-2-deoxy-α-D-glucopyranosyl P^2-(2Z,6Z,10Z,14Z,18E)-3,7,11,15,19,23-hexamethyltetraicosa-2,6,10,14,18,22-hexaen-1-yl diphosphate], for which, in assay [1], the Km stood at 55 ± 10 µM and the kcat is 0.000385 ± 2.67e-05 s⁻¹. The “conversion, optimised glycosylation of TAMRA-peptide” value in assay [2] came out at 92%. Besides, in assay [3], the “conversion to the diglycosylated AcrA protein” value was > 95%.

The Km is the substrate concentration at which the rate is half of its maximum. What is called kcat is the maximal rate divided by the concentration of active sites.
